These results are taken from patent publication US5516905A, “Antibiotic compounds and methods to treat gram-positive bacterial and mycoplasmal infections” (priority 1994, dated 1996).

Each structure is given as a SMILES string. Converted amounts (≈) assume the structure as drawn. Like-named read-outs stand apart in the source and are kept apart here.

In one series the target is T1, B. subtilis Pol III (Bacillus subtilis, UniProt P13267).
T1 construct: B. subtilis Pol III was prepared and used as described by (Barnes); made in house
T1 sequence (P13267 whole entry): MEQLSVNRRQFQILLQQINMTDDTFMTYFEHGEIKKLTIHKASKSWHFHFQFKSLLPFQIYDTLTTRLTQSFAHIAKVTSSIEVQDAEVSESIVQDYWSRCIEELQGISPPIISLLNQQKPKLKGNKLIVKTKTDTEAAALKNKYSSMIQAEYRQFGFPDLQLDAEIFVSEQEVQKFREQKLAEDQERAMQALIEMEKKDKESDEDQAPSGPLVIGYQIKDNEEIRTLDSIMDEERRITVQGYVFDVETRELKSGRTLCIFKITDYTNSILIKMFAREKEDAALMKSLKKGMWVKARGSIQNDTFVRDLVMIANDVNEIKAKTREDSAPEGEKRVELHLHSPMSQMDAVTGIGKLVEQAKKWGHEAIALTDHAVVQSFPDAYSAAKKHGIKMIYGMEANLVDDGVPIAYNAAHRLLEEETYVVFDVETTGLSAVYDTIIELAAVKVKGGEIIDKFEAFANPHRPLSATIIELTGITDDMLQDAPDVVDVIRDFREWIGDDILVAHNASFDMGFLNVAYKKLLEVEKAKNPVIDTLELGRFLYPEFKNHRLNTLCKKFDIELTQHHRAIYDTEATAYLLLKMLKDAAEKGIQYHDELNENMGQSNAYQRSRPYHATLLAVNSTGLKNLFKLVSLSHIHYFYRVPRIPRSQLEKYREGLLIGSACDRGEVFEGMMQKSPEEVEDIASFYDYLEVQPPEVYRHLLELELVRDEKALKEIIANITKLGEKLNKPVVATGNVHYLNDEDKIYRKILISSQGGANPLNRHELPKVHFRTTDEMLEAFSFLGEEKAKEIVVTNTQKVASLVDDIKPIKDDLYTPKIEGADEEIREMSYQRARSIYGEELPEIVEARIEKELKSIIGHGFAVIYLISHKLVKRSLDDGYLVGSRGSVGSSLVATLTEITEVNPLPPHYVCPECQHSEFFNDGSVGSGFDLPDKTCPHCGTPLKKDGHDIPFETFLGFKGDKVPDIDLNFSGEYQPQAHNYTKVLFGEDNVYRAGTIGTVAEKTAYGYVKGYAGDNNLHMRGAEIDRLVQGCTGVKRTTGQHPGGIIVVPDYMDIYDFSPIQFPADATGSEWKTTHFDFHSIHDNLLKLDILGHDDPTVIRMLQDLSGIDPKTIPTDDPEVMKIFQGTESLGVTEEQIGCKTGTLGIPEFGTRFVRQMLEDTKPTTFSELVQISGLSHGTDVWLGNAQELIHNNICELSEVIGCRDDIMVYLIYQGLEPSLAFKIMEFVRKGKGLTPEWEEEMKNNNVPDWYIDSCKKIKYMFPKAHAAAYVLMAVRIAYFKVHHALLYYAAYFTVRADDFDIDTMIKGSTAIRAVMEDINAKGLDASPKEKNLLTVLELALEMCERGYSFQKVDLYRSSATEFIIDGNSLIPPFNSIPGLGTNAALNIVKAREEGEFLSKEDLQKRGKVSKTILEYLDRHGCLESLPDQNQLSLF
The series can be described thus: DNA polymerase activity assay, B. subtilis Pol III. The series is classed as biochemical. The conditions noted are these: dGTP 10 μM; arylazopyrimidines reduced to hydrazino forms. Here is the method:
(§1) DNA pol activity was assayed as described (Barnes et al., NuC. Acids Res., 6:1203-19 (1979)), using activated calf-thymus DNA as template primer, […] [^3 H-methyl]-dTTP as the labelled dNTP substrate, and dATP, dCTP, and dGTP at 25 μM each. For determination of IC50 values of TMAU and the four arylazopyrimidines (summarized in Table 2), the concentration of dGTP was reduced from 25 to 10 μM. TMAU was used directly in enzyme assays, and arylazopyrimidines were reduced prior to assay to the active, hydrazino forms, using sodium dithionite as described by Wright and Brown (1977) J. Med. Chem. 20:1181-1185.
(§2) Five compounds were used to assess the sensitivity of peak A pol activity to HPUra-type inhibitors. These were the four compounds used in the growth experiment described above (HPUra, PUra, PCPUra, and MCPUra) as well as TMAU (6-([…]) uracil), a `second generation` derivative of the HPUra prototype, equivalent in mechanism and target specificity (Wright and Brown, 1990). The IC50 value (the concentration required for 50% inhibition) of each of these agents was determined for the peak A pol activity and for an inhibitor-sensitive control enzyme, B. subtilis Pol III.

Series [1] has as its system M. pulmonis strain KD735-15. The series is described as follows: Mycoplasmal growth inhibition on agar (colony formation, cfu). The series is classed as cell-based, Mycoplasma pulmonis. Conditions: for IC99: Mycoplasmopsis pulmonis, KD73515, series 100, 50, 25, 12.5 and 6.25 μM, read-out: Concentration required to inhibit colony formation by 99%. The protocol: M. pulmonis strain KD735-15 (construction described in Bhugra and Dybvig, 1992) was propagated in mycoplasmal medium, and colony-forming units (cfu) were assessed on agar as previously described (Dybvig and Cassell, 1987). M pulmonis is a representative species which is well characterized. Other publicly available strains may also be used. For example, Mycoplasma agalactiae, ATCC 35890, Mycoplasma arthritidis ATCC 13988, Mycoplasma bovigenitalium, ATCC 14173, Mycoplasma bovirhinis, ATCC 27748, Mycoplasma bovis, ATCC 25025, Mycoplasma felis, ATCC 23391, Mycoplasma gallinaceum, ATCC 33550, Mycoplasma gallinarum, ATCC 15319, Mycoplasma gallisepticum, ATCC 15302, Mycoplasma genitalium, ATCC 33530, Mycoplasma hominis, ATCC 14027, Mycoplasma hyorhinis, ATCC 17981, Mycoplasma hyosynoviae, ATCC 25591, Mycoplasma meleagridis, ATCC 25294, Mycoplasma orale, ATCC 15539, Mycoplasma pneumoniae, ATCC 15293, Mycoplasma pullorum, ATCC 33553, Mycoplasma pulmonis, ATCC 14267, Mycoplasma putrefaciens, ATCC 15718, Mycoplasma synoviae, ATCC 25204, may also be used. The inhibitors used here were prepared as described in Wright and Brown ((1990) Pharmac. Ther. 47:447-497) and were prepared at a stock concentration of 20 mM in dimethyl sulphoxide (DMSO). Growth inhibition was examined on agar by comparing cfu obtained on medium lacking or supplemented with antibiotic. DMSO alone at concentrations as high as 1% had no effect on growth or cfu capacity of M. pulmonis.
HPUra and 25 other agents selected from a large collection of structurally related compounds (Wright and Brown, 1990, Pharmac. Ther. 47:447-497) were tested against M. pulmonis at a concentration of 200 μM as described in the Experimental procedures.

In series [2] the target is T2, M. pulmonis peak A pol activity (Pol III).
T2 construct: we prepared a crude extract of M. pulmonis; endogenous in cells; host or cells: M. pulmonis (strain KD735-15 was the strain propagated)
T2 sequence (P13267 whole entry): as above
The series is described as follows: DNA polymerase activity assay, M. pulmonis peak A pol (Bio-Rex 70). It is filed as biochemical. The conditions noted are these: Fraction 7 from peak A; dGTP 10 μM; arylazopyrimidines reduced to hydrazino forms. Here is the method: (§3) Fraction Va (Bio-Rex 70 chromatography): Fraction IV was diluted with column buffer containing 1% Triton X-100 to reduce the concentration of NaCl to 25 mM, and then applied to a 2 ml Bio-Rex 70 (Bio-Rad) column equilibrated in column buffer containing 1% Triton X-100+25 mM NaCl. The column was washed with 5 ml of the same buffer, and the adsorbed enzyme was eluted in two distinct peaks (designated A and B) at approximately 0.15 and 0.30M NaCl, respectively. As the top panel of the figure indicates, peak A represents the HPUra-sensitive pol activity. Peak A was pooled to generate Fraction Va.
as §1, §2

Another series has as its system Methicillin-Resistant SA. The series can be described thus: Minimal inhibitory concentration vs. growth of methicillin-resistant Staphylococcus aureus. It is filed as cell-based.
The subject of a further series is Control SA. The series can be described thus: Minimal inhibitory concentration vs. growth of Staphylococcus aureus (control strain). It is filed as cell-based.
In the next series the test system is Wild-Type BS. The series is described as follows: Minimal inhibitory concentration vs. growth of B. subtilis. The series is classed as cell-based. The conditions noted are these: Bacillus subtilis.
For series [3], the target named is T3, exo activity of peak A pol (Bacillus subtilis, UniProt P13267).
T3 construct: we prepared a crude extract of M. pulmonis; endogenous in cells; host or cells: M. pulmonis (strain KD735-15 was the strain propagated)
T3 sequence (P13267 whole entry): as above
The series is described as follows: Exo activity of peak A enzyme on 3'-labelled ssDNA. The series is classed as biochemical, M. pulmonis. Conditions: for inhibition at 50 µM: read-out: Inhibition of ssDNA digestion. Here is the method:
(§4) Exo activity was assayed as described by Low et al. (1976), supra, using denatured calf-thymus DNA incorporating [^3 H]-dTMP residues at the 3'-OH ends.
(§5) TMAU at 50 μM inhibited ssDNA digestion by about 70% in the presence of dsDNA. When the latter mixture was supplemented with 500 μM dGTP, the specific antagonist of TMAU-induced sequestration inhibition was reduced to a level of <3%.

The subject of series [4] is M. pulmonis peak B pol activity. The series is described as follows: DNA polymerase activity assay, M. pulmonis peak B pol (Bio-Rex 70). Conditions: 200 μM HPUra. The series is classed as biochemical. Here is the method:
as §3, §1
To characterize the HPUra-sensitive pol activity further, we purified it using a five-step scheme summarized in Table 1 and described in the Experimental procedures. […]

Series [5] has as its target T4, M. pulmonis peak A pol activity (Pol III) (Bacillus subtilis, UniProt P13267).
T4 construct: we prepared a crude extract of M. pulmonis; endogenous in cells; host or cells: M. pulmonis (strain KD735-15 was the strain propagated)
The series can be described thus: DNA polymerase activity assay, M. pulmonis peak A pol (Bio-Rex 70). It is filed as biochemical. Conditions: 200 μM HPUra. The protocol: as §3, §1, §2

Another series concerns mammalian cells. Conditions: cited from earlier work.
The test system of series [6] is T5, exo activity of peak A pol.
T5 construct: we prepared a crude extract of M. pulmonis; endogenous in cells; host or cells: M. pulmonis (strain KD735-15 was the strain propagated)
T5 sequence (P13267 whole entry): as above
The series is described as follows: Exo activity of peak A enzyme on 3'-labelled ssDNA. It is filed as biochemical, M. pulmonis. The conditions noted are these: TMAU 50 μM, dsDNA, plus 500 μM dATP. Here is the method: as §4, §5

[7] abbreviates: nucleotide 500 μM, no TMAU, sequestering conditions with dsDNA.

T4 sequence (P13267 whole entry): as above

On to `O=c1cc(N=Nc2ccccc2)[nH]c(=O)[nH]1` [PUra, 6-(phenylazo)uracil], for which the IC50 (as a rule, the midpoint of a concentration-inhibition curve) on B. subtilis Pol III turned out to be 34 µM; in [2], 20 µM. In [1], the IC99 was 6.25 to 12.5 µM.

`CCCCn1c(=O)cc(Nc2ccc3c(c2)CCC3)[nH]c1=O` [nC4 H9]: the results for the MIC with Methicillin-Resistant SA, with Control SA and in the series with Wild-Type BS were 0.5 µg/mL (≈ 1.67 µM), more than 128 µg/mL and 1.8 µg/mL (≈ 6.01 µM), respectively.

Regarding `Nc1ncnc2c1ncn2[C@H]1C[C@H](O)[C@@H](COP(=O)(O)OP(=O)(O)OP(=O)(O)O)O1` [dATP], the “Exo Activity (%)” value in series [3] (setting [7]) came out at 101%.

Regarding `COc1cccc(OC)c1C(=O)N[C@@H]1C(=O)N2[C@@H]1SC(C)(C)[C@@H]2C(=O)O` [Methicillin], the MIC – broadly, the lowest concentration found to suppress growth – was 128 µg/mL (≈ 336 µM) in the series on Methicillin-Resistant SA and 1 µg/mL (≈ 2.63 µM) against Control SA.

Turning to `CCCn1c(=O)cc(Nc2ccc3c(c2)CCC3)[nH]c1=O` [nC3 H7], in the series on Wild-Type BS, the MIC is 3.5 µg/mL (≈ 12.3 µM).

Take `O=c1cc(N=Nc2ccc(O)cc2)[nH]c(=O)[nH]1` [HPUra, 6-(p-Hydroxyphenylazo)-uracil]: the IC50 came out at 11 µM at B. subtilis Pol III and 14 µM in series [2]. In addition, the “Inhibition of colony formation” value in series [1] (200 μM) was “completely inhibited colony formation”. In addition, in [4], the “Sensitivity of peak B pol activity” value is given as “insensitive”. The “Sensitivity of peak A pol activity” value in [5] was “drug-sensitive”. The “Toxicity in mammalian cells” value in the series with mammalian cells is “low toxicity”.

Consider `Cn1c(=O)cc(Nc2ccc3c(c2)CCC3)[nH]c1=O` [CH3], for which, in the series on Wild-Type BS, the MIC worked out at 7 µg/mL (≈ 27.2 µM).

On to `CCn1c(=O)cc(Nc2ccc3c(c2)CCC3)[nH]c1=O` [C2 H5], for which the MIC against Methicillin-Resistant SA is 0.5 µg/mL (≈ 1.84 µM); against Control SA, 1 µg/mL (≈ 3.69 µM); against Wild-Type BS it was 4 µg/mL (≈ 14.7 µM).

In the case of `Nc1nc2c(ncn2[C@H]2C[C@H](O)[C@@H](COP(=O)(O)OP(=O)(O)OP(=O)(O)O)O2)c(=O)[nH]1` [dGTP], the “Exo Activity (%)” value in [3] (setting [7]) came out at 103%.

Take `Oc1cc(N=Nc2ccc(Cl)cc2)nc(O)n1` [PCPUra, 6-(p-chlorophenylazo) uracil]: the IC50 against B. subtilis Pol III was determined as 57 µM; in series [2], 31 µM. For the same compound, the IC99 in series [1] is less than 6.25 µM.

Regarding `O=c1cc(N=Nc2cccc(Cl)c2)[nH]c(=O)[nH]1` [MCPUra, 6-(m-chlorophenylazo)uracil], the values for the IC50 (against B. subtilis Pol III; in [2]) were 48 µM and 17 µM, respectively. Further, the IC99 in [1] is 12.5 µM.

Take `O=c1cc(Nc2ccc3c(c2)CCC3)[nH]c(=O)[nH]1` [TMAU, 6-(3',4'-trimethylanilino) uracil]: the IC50 was 8 µM at B. subtilis Pol III and 11 µM in series [2]. Also, the MIC with Methicillin-Resistant SA turned out to be 4 µg/mL (≈ 16.4 µM); in the series on Control SA it was 8 µg/mL (≈ 32.9 µM); in the series on Wild-Type BS it was 23 µg/mL (≈ 94.5 µM). The “Effect of dATP on level of inhibition of ssDNA digestion” value in series [6] is recorded as “no significant effect”. Further, the “Exo Activity (%)” value in series [3] (TMAU 50 μM + dGTP 500 μM, sequestering conditions with dsDNA) was 98%. The same compound registered an activity at 50 µM in series [3] (TMAU 50 μM alone, sequestering conditions with dsDNA) of 31%. In addition, the inhibition (commonly the share of the control response that was lost under treatment) at 50 µM in series [3] (TMAU 50 μM, dsDNA, plus 500 μM dGTP) was less than 3%; in [3] (TMAU 50 μM, in the presence of dsDNA) it was approximately 70%. In addition, the “Exo activity on ssDNA, sensitivity” value in [3] (TMAU 50 μM, ssDNA without dsDNA, preliminary, results not shown) is recorded as “resistant”.
